Test results taken from patent US20180021429A1, “ANTICANCER AGENTS OR ANTIMETASTATIC AGENTS USING FSTL1 AND COMBINATION DRUG THEREOF” (PHARMA FOODS INTERNATIONAL CO., LTD., priority 2015, published 2018).

Test system: mouse lung cancer 3LL
Test: Combined use with CPA in subcutaneously mouse lung cancer 3LL-transplanted model (Example 35)
Assay type: in vivo
Details: CPA 2 mg/mouse/day i.p. days 4-7; anti-FSTL1 antibody 5 mg/kg i.p. days 8 and 11

For O=P1(N(CCCl)CCCl)NCCCO1 (stereo not shown) [CPA, cyclophosphamide], the “subcutaneous tumor growth / antitumor effect” value was “strongly suppressed subcutaneous tumor growth”.
